# Results: patent publication US20240182487A1, “MACROCYCLES AND THEIR USE” (BLOSSOMHILL THERAPEUTICS, INC., priority 2020, published 2024)
# Biological target: EGFR (Δ746-750) (Homo sapiens (Human), UniProt P00533, DEL746-750)
# Assay: HotSpot radiometric kinase assay, EGFR Δ746-750
# Assay type: biochemical
# Conditions: radiometric filter-binding, 10 μM ATP
# EGFR (Δ746-750), sequence (P00533 other isoform, or with tags, fused parts or gaps del 1-668/del 746-750 limits assumed): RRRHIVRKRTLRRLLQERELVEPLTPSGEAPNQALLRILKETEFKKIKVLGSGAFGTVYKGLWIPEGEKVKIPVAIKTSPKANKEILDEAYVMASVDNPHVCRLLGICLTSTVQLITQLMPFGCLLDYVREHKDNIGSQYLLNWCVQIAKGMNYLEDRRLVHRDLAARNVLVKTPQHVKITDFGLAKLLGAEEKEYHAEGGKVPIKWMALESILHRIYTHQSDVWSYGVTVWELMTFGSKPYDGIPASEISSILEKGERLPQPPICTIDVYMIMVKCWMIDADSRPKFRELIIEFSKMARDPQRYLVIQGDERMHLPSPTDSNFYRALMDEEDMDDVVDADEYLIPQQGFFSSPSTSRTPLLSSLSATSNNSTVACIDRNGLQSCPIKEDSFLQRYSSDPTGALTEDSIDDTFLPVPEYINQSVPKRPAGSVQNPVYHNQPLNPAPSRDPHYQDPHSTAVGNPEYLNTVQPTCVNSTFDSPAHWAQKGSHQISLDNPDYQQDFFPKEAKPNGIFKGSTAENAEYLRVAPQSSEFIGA
row,IC50 [µM],SMILES
1,0.964,"CCc1c2c(nn1C)C(=O)N(C)CCOc1c[nH]c(=O)cc1-c1cc3c(n[nH]c3cn1)/C=C/2 [Cpd. 38, (18E)-17-ethyl-13,16-dimethyl-2,12,13,16-tetrahydro-5,3-(azenometheno)dipyrazolo[3,4-f:3′,4′-j]pyrido[4,3-n][1,4]oxazacyclopentadecine-7,14(8H,11H)-dione]"
2,1.53,"COC(=O)c1ccc2c(c1)OCCCOc1c(cnn1C)-c1cc3c(n[nH]c3cn1)/C=C/2 [Cpd. 67, methyl (11E)-1-methyl-19,20-dihydro-1H,8H,18H-10,7,4-(ethan[1]yl[1,2]diylidene)pyrazolo[3,4-f][1,5,9,12,13]benzodioxatriazacyclooctadecine-15-carboxylate]"
3,0.0933,"COC(=O)c1ccc2c(c1)/C=C/c1n[nH]c3cnc(cc13)-c1cnn(C)c1OCCCO2 [Cpd. 68, methyl (11E)-1-methyl-19,20-dihydro-1H,8H,18H-10,7,4-(ethan[1]yl[1,2]diylidene)pyrazolo[3,4-f][1,5,9,12,13]benzodioxatriazacyclooctadecine-14-carboxylate]"
4,1,"COC(=O)c1ccc2c(c1)OCCOCc1c(cnn1C)-c1cc3c(n[nH]c3cn1)/C=C/2 [Cpd. 69, methyl (11E)-1-methyl-1,18,19,21-tetrahydro-8H-10,7,4-(ethan[1]yl[1,2]diylidene)pyrazolo[3,4-f][1,4,9,12,13]benzodioxatriazacyclooctadecine-15-carboxylate]"
5,0.0029,"CN(C)CCCNC(=O)c1ccc2c(c1)/C=C/c1n[nH]c3cnc(cc13)-c1cnn(C)c1OCCCO2 [Cpd. 70, (11E)-N-[3-(dimethylamino)propyl]-1-methyl-19,20-dihydro-1H,8H,18H-10,7,4-(ethan[1]yl[1,2]diylidene)pyrazolo[3,4-f][1,5,9,12,13]benzodioxatriazacyclooctadecine-14-carboxamide]"
6,0.0183,"Cn1ncc2c1OCCCOc1ccc(C(=O)N3CCCC3)cc1/C=C/c1n[nH]c3cnc-2cc13 [Cpd. 72, [(11E)-1-methyl-19,20-dihydro-1H,8H,18H-10,7,4-(ethan[1]yl[1,2]diylidene)pyrazolo[3,4-f][1,5,9,12,13]benzodioxatriazacyclooctadecin-14-yl](pyrrolidin-1-yl)methanone]"
7,0.0358,"Cn1ncc2c1OCCCOc1cc(C(=O)O)ccc1/C=C/c1n[nH]c3cnc-2cc13 [Cpd. 73, (11E)-1-methyl-19,20-dihydro-1H,8H,18H-10,7,4-(ethan[1]yl[1,2]diylidene)pyrazolo[3,4-f][1,5,9,12,13]benzodioxatriazacyclooctadecine-15-carboxylic acid]"
8,0.004,"CN(C)CCNC(=O)c1ccc2c(c1)OCCCOc1c(cnn1C)-c1cc3c(n[nH]c3cn1)/C=C/2 [Cpd. 74, (11E)-N-[2-(dimethylamino)ethyl]-1-methyl-19,20-dihydro-1H,8H,18H-10,7,4-(ethan[1]yl[1,2]diylidene)pyrazolo[3,4-f][1,5,9,12,13]benzodioxatriazacyclooctadecine-15-carboxamide]"
9,0.051,"COC(=O)c1ccc2c(c1)/C=C/c1n[nH]c3cnc(cc13)-c1cnn(C)c1COCCO2 [Cpd. 75, methyl (11E)-1-methyl-1,18,19,21-tetrahydro-8H-10,7,4-(ethan[1]yl[1,2]diylidene)pyrazolo[3,4-f][1,4,9,12,13]benzodioxatriazacyclooctadecine-14-carboxylate]"
10,0.0022,"CN1CCC(CNC(=O)c2ccc3c(c2)/C=C/c2n[nH]c4cnc(cc24)-c2cnn(C)c2OCCCO3)CC1 [Cpd. 76, (11E)-1-methyl-N-[(1-methylpiperidin-4-yl)methyl]-19,20-dihydro-1H,8H,18H-10,7,4-(ethan[1]yl[1,2]diylidene)pyrazolo[3,4-f][1,5,9,12,13]benzodioxatriazacyclooctadecine-14-carboxamide]"
11,0.0346,"CC(C)NC(=O)c1ccc2c(c1)OCCCOc1c(cnn1C)-c1cc3c(n[nH]c3cn1)/C=C/2 [Cpd. 77, (11E)-1-methyl-N-(propan-2-yl)-19,20-dihydro-1H,8H,18H-10,7,4-(ethan[1]yl[1,2]diylidene)pyrazolo[3,4-f][1,5,9,12,13]benzodioxatriazacyclooctadecine-15-carboxamide]"
12,0.0053,"CN1CCC(NC(=O)c2ccc3c(c2)OCCCOc2c(cnn2C)-c2cc4c(n[nH]c4cn2)/C=C/3)CC1 [Cpd. 78, (11E)-1-methyl-N-(1-methylpiperidin-4-yl)-19,20-dihydro-1H,8H,18H-10,7,4-(ethan[1]yl[1,2]diylidene)pyrazolo[3,4-f][1,5,9,12,13]benzodioxatriazacyclooctadecine-15-carboxamide]"
13,0.0283,"CN1CC[C@@H](NC(=O)c2ccc3c(c2)OCCCOc2c(cnn2C)-c2cc4c(n[nH]c4cn2)/C=C/3)C1 [Cpd. 82, (11E)-1-methyl-N-[(3R)-1-methylpyrrolidin-3-yl]-19,20-dihydro-1H,8H,18H-10,7,4-(ethan[1]yl[1,2]diylidene)pyrazolo[3,4-f][1,5,9,12,13]benzodioxatriazacyclooctadecine-15-carboxamide]"
14,0.0344,"CN1CC(NC(=O)c2ccc3c(c2)OCCCOc2c(cnn2C)-c2cc4c(n[nH]c4cn2)/C=C/3)C1 [Cpd. 83, (11E)-1-methyl-N-(1-methylazetidin-3-yl)-19,20-dihydro-1H,8H,18H-10,7,4-(ethan[1]yl[1,2]diylidene)pyrazolo[3,4-f][1,5,9,12,13]benzodioxatriazacyclooctadecine-15-carboxamide]"
15,0.24,"CCNC(=O)c1ccc2c(c1)OCCOCc1c(cnn1C)-c1cc3c(n[nH]c3cn1)/C=C/2 [Cpd. 84, (11E)-N-ethyl-1-methyl-1,18,19,21-tetrahydro-8H-10,7,4-(ethan[1]yl[1,2]diylidene)pyrazolo[3,4-f][1,4,9,12,13]benzodioxatriazacyclooctadecine-15-carboxamide]"
16,0.07,"CN1CCC(NC(=O)c2ccc3c(c2)OCCOCc2c(cnn2C)-c2cc4c(n[nH]c4cn2)/C=C/3)CC1 [Cpd. 85, (11E)-1-methyl-N-(1-methylpiperidin-4-yl)-1,18,19,21-tetrahydro-8H-10,7,4-(ethan[1]yl[1,2]diylidene)pyrazolo[3,4-f][1,4,9,12,13]benzodioxatriazacyclooctadecine-15-carboxamide]"
17,0.0156,"CNC(=O)c1ccc2c(c1)/C=C/c1n[nH]c3cnc(cc13)-c1cnn(C)c1OCCCO2 [Cpd. 86, (11E)-N,1-dimethyl-19,20-dihydro-1H,8H,18H-10,7,4-(ethan[1]yl[1,2]diylidene)pyrazolo[3,4-f][1,5,9,12,13]benzodioxatriazacyclooctadecine-14-carboxamide]"
18,0.0346,"CN1CC[C@@H](NC(=O)c2ccc3c(c2)OCCOCc2c(cnn2C)-c2cc4c(n[nH]c4cn2)/C=C/3)C1 [Cpd. 87, (11E)-1-methyl-N-[(3R)-1-methylpyrrolidin-3-yl]-1,18,19,21-tetrahydro-8H-10,7,4-(ethan[1]yl[1,2]diylidene)pyrazolo[3,4-f][1,4,9,12,13]benzodioxatriazacyclooctadecine-15-carboxamide]"
19,0.0246,"CN1CC[C@H](NC(=O)c2ccc3c(c2)OCCCOc2c(cnn2C)-c2cc4c(n[nH]c4cn2)/C=C/3)C1 [Cpd. 88, (11E)-1-methyl-N-[(3S)-1-methylpyrrolidin-3-yl]-19,20-dihydro-1H,8H,18H-10,7,4-(ethan[1]yl[1,2]diylidene)pyrazolo[3,4-f][1,5,9,12,13]benzodioxatriazacyclooctadecine-15-carboxamide]"
20,0.0238,"CCNC(=O)c1ccc2c(c1)/C=C/c1n[nH]c3cnc(cc13)-c1cnn(C)c1COCCO2 [Cpd. 89, (11E)-N-ethyl-1-methyl-1,18,19,21-tetrahydro-8H-10,7,4-(ethan[1]yl[1,2]diylidene)pyrazolo[3,4-f][1,4,9,12,13]benzodioxatriazacyclooctadecine-14-carboxamide]"
21,0.0168,"CN(C)CCNC(=O)c1ccc2c(c1)/C=C/c1n[nH]c3cnc(cc13)-c1cnn(C)c1COCCO2 [Cpd. 90, (11E)-N-[2-(dimethylamino)ethyl]-1-methyl-1,18,19,21-tetrahydro-8H-10,7,4-(ethan[1]yl[1,2]diylidene)pyrazolo[3,4-f][1,4,9,12,13]benzodioxatriazacyclooctadecine-14-carboxamide]"
22,0.0197,"CN(C)CCCNC(=O)c1ccc2c(c1)/C=C/c1n[nH]c3cnc(cc13)-c1cnn(C)c1COCCO2 [Cpd. 91, (11E)-N-[3-(dimethylamino)propyl]-1-methyl-1,18,19,21-tetrahydro-8H-10,7,4-(ethan[1]yl[1,2]diylidene)pyrazolo[3,4-f][1,4,9,12,13]benzodioxatriazacyclooctadecine-14-carboxamide]"
23,0.0471,"Cn1ncc2c1COCCOc1ccc(C(=O)O)cc1/C=C/c1n[nH]c3cnc-2cc13 [Cpd. 92, (11E)-1-methyl-1,18,19,21-tetrahydro-8H-10,7,4-(ethan[1]yl[1,2]diylidene)pyrazolo[3,4-f][1,4,9,12,13]benzodioxatriazacyclooctadecine-14-carboxylic acid]"
24,0.0136,"CN1CCC(NC(=O)c2ccc3c(c2)/C=C/c2n[nH]c4cnc(cc24)-c2cnn(C)c2COCCO3)CC1 [Cpd. 93, (11E)-1-methyl-N-(1-methylpiperidin-4-yl)-1,18,19,21-tetrahydro-8H-10,7,4-(ethan[1]yl[1,2]diylidene)pyrazolo[3,4-f][1,4,9,12,13]benzodioxatriazacyclooctadecine-14-carboxamide]"
25,0.0176,"CN1CCC(CNC(=O)c2ccc3c(c2)/C=C/c2n[nH]c4cnc(cc24)-c2cnn(C)c2COCCO3)CC1 [Cpd. 94, (11E)-1-methyl-N-[(1-methylpiperidin-4-yl)methyl]-1,18,19,21-tetrahydro-8H-10,7,4-(ethan[1]yl[1,2]diylidene)pyrazolo[3,4-f][1,4,9,12,13]benzodioxatriazacyclooctadecine-14-carboxamide]"
26,0.139,"Cc1ccc2c(n1)/C=C/c1n[nH]c3cnc(cc13)-c1cnn(C)c1C(C)OCCO2 (centres unmarked) [Cpd. 95, (18E)-8,9,16-trimethyl-8,9,11,12-tetrahydro-2H-5,3-(azenometheno)dipyrazolo[3′,4′:9,10;4″,3″:13,14][1,4]dioxacyclopentadecino[6,5-b]pyridine]"
